Data: the kinase profiling compilation of Christmann-Franck et al. (2016)
Values joined by “and” are separate entries in the source; they are usually repeats but may differ in a detail not shown here. Identical values can stand only once. Each block holds one compound with its values, some of them ahead of it.

Legend:
Test in all cases: Caliper, Mobility shift assay off-chip
MST1R (human) = MST1R (human) (UniProt Q04912)
NEK4 (human) = NEK4 (human) (UniProt P51957)
PRKD2 (human) = PRKD2 (human) (UniProt Q9BZL6)
PRKCB1 (human) = PRKCB1 (human) (UniProt P05771)
RPS6KA5 KD1 KD2 (human) = RPS6KA5 KD1 KD2 (human) (UniProt O75582)
FER (human) = FER (human) (UniProt P16591)
SRPK2 (human) = SRPK2 (human) (UniProt P78362)
PTK6 (human) = PTK6 (human) (UniProt Q13882)
PASK (human) = PASK (human) (UniProt Q96RG2)
ROS1 (human) = ROS1 (human) (UniProt P08922)
PRKD3 (human) = PRKD3 (human) (UniProt O94806)
EPHA8 (human) = EPHA8 (human) (UniProt P29322)
PTK2B (human) = PTK2B (human) (UniProt Q14289)
CHEK2 (human) = CHEK2 (human) (UniProt O96017)
SPHK2 (human) = SPHK2 (human) (UniProt Q9NRA0)
CLK2 (human) = CLK2 (human) (UniProt P49760)
INSR (human) = INSR (human) (UniProt P06213)
EPHA2 (human) = EPHA2 (human) (UniProt P29317)
PDK2 (human) = PDK2 (human) (UniProt Q15119)
ERBB2 (human) = ERBB2 (human) (UniProt P04626)
CSNK1D (human) = CSNK1D (human) (UniProt P48730)
EPHA3 (human) = EPHA3 (human) (UniProt P29320)
CDK1 (human) = CDK1 (human) (UniProt P06493)
MKNK1 (human) = MKNK1 (human) (UniProt Q9BUB5)
ROCK1 (human) = ROCK1 (human) (UniProt Q13464)
MARK4 (human) = MARK4 (human) (UniProt Q96L34)
PHKG1 (human) = PHKG1 (human) (UniProt Q16816)
TNK2 (human) = TNK2 (human) (UniProt Q07912)
SYK (human) = SYK (human) (UniProt P43405)
PRKG2 (human) = PRKG2 (human) (UniProt Q13237)
RPS6KA2 KD1 KD2 (human) = RPS6KA2 KD1 KD2 (human) (UniProt Q15349)
NTRK3 (human) = NTRK3 (human) (UniProt Q16288)
HIPK2 (human) = HIPK2 (human) (UniProt Q9H2X6)

ROS1 (human), sequence (P08922 whole entry, looked up): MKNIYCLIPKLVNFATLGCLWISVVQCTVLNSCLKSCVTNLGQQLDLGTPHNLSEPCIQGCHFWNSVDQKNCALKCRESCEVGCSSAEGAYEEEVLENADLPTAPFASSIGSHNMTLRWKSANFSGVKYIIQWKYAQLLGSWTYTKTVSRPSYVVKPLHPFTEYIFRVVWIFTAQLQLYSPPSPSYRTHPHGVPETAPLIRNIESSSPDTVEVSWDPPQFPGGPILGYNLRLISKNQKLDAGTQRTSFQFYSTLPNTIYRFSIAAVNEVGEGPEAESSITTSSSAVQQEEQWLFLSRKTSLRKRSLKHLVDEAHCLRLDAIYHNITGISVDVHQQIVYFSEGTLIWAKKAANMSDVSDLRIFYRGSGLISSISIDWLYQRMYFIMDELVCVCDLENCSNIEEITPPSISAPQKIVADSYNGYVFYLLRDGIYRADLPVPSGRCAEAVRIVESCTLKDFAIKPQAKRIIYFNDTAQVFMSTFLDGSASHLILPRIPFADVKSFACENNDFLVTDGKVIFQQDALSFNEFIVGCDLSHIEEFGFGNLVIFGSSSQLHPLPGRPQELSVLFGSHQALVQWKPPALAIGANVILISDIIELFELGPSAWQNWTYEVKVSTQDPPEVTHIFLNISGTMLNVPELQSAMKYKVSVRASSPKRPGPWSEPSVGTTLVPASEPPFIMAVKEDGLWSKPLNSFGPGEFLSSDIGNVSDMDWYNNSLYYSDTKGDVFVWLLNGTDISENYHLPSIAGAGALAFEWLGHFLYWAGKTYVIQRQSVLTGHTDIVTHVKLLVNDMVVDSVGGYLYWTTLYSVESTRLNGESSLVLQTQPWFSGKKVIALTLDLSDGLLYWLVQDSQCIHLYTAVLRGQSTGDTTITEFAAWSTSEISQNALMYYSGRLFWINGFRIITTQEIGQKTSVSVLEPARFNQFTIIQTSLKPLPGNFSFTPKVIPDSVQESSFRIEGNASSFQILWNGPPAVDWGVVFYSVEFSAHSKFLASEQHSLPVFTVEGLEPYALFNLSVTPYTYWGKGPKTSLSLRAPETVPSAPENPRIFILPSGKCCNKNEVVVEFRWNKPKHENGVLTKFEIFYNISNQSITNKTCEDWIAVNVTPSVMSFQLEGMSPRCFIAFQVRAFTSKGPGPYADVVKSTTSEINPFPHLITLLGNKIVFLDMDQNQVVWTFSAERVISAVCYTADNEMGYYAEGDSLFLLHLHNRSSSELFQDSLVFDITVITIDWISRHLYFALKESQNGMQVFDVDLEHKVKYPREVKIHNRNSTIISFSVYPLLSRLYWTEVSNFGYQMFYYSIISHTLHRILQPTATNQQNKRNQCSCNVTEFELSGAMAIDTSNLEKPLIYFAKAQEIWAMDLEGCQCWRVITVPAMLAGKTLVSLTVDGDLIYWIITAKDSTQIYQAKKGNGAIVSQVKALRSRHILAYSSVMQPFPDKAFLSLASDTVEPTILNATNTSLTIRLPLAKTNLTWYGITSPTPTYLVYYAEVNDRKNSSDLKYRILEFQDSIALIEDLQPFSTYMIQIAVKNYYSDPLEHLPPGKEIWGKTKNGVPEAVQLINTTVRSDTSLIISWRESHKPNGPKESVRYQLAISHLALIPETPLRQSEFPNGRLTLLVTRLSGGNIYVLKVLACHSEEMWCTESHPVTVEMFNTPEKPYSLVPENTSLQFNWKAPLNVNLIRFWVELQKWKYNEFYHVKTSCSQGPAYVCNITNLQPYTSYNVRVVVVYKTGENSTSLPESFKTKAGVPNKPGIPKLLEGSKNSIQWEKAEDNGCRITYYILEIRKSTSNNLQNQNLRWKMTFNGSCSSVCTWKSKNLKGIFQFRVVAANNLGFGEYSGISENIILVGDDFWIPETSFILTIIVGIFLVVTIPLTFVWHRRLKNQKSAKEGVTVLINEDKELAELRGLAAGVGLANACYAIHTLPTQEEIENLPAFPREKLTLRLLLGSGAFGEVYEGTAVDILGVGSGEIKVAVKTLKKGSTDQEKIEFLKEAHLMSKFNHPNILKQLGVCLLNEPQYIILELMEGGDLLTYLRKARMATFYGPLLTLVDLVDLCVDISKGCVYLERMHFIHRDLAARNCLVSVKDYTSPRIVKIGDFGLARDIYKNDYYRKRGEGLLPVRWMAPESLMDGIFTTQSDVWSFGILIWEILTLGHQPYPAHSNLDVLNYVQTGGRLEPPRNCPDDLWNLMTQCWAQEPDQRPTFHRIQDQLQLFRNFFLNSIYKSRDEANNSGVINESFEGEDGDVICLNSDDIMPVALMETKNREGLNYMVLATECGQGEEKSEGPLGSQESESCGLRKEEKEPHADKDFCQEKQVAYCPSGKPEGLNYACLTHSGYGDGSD
CLK2 (human), sequence (P49760 whole entry, looked up): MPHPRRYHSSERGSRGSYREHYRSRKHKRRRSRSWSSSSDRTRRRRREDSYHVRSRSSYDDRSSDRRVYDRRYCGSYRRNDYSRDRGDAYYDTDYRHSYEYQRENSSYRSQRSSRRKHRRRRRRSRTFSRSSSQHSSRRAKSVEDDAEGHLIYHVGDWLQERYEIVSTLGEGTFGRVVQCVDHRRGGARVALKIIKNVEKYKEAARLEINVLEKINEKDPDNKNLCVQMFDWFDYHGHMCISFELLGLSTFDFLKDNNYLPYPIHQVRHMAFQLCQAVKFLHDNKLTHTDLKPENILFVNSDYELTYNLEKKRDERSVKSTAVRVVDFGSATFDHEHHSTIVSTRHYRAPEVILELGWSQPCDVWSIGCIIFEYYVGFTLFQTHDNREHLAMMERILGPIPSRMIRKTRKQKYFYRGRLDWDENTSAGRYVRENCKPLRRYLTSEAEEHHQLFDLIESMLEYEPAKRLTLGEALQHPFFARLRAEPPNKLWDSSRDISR
MKNK1 (human), sequence (Q9BUB5 whole entry, looked up): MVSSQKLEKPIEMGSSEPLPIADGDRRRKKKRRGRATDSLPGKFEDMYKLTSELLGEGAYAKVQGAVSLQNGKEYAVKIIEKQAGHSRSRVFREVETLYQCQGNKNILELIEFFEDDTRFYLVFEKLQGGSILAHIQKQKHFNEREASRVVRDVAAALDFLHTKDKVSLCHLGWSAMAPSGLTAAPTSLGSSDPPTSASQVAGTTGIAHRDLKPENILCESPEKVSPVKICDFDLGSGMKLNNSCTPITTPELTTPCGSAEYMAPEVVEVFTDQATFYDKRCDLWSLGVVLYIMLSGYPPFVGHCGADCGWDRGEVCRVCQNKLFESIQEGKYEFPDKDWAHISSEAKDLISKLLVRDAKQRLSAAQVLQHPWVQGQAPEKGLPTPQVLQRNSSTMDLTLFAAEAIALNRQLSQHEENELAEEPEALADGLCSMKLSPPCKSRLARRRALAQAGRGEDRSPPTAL
TNK2 (human), sequence (Q07912 whole entry, looked up): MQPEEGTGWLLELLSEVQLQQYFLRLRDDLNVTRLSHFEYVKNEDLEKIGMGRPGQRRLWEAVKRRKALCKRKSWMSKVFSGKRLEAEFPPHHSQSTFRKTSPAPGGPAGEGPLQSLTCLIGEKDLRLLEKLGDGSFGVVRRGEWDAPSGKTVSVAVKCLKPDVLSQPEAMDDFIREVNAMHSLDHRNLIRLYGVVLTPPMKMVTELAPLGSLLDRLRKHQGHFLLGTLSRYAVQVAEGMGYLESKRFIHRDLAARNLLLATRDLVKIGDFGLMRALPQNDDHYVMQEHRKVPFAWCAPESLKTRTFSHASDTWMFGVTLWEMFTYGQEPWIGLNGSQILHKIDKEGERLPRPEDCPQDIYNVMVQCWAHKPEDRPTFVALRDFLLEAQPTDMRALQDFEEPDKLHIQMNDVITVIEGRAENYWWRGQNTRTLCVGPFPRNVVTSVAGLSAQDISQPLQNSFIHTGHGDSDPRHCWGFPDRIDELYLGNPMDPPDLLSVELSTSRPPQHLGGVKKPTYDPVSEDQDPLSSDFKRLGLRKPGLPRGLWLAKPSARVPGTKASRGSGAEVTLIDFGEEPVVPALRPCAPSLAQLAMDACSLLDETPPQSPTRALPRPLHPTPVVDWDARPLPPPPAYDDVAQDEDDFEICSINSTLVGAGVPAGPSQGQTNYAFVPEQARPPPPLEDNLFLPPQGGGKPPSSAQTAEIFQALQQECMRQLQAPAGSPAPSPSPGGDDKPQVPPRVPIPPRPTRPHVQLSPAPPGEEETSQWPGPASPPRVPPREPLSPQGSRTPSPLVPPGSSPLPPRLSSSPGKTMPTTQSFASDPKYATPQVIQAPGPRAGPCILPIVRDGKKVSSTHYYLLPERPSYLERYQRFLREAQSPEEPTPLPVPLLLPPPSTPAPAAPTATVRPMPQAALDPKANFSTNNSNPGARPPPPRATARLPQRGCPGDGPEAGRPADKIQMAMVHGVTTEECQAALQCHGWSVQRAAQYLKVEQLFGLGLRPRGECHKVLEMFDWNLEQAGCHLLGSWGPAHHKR
MARK4 (human), sequence (Q96L34 whole entry, looked up): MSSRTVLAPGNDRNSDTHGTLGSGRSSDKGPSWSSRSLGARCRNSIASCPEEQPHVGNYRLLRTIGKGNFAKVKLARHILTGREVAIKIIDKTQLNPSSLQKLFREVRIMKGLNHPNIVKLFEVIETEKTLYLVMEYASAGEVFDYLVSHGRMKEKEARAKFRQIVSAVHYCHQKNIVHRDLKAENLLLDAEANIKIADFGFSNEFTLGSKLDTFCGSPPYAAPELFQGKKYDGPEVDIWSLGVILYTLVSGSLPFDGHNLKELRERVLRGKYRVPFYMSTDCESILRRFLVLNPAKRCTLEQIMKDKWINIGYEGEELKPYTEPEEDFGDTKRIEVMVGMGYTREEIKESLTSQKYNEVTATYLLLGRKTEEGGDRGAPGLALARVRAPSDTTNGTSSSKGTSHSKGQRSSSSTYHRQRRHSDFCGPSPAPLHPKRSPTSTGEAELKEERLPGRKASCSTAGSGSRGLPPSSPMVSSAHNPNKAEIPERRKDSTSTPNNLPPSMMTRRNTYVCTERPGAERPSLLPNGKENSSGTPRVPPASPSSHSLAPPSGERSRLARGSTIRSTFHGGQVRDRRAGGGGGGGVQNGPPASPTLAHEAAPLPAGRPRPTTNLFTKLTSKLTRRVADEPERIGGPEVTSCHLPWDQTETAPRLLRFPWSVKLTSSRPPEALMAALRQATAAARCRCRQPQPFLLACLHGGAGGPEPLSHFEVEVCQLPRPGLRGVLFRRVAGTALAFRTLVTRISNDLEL

inhibition (MST1R (human); compound 0.02 µM): -4.7%
inhibition (MST1R (human); compound 0.2 µM): 5.3%
inhibition (NEK4 (human); compound 0.02 µM): -3%
inhibition (NEK4 (human); compound 0.2 µM): -0.8%
inhibition (PRKD2 (human); compound 0.02 µM): -1.2%
inhibition (PRKD2 (human); compound 0.2 µM): 0%
inhibition (PRKCB1 (human); compound 0.02 µM): -0.2% and -0.6%
inhibition (PRKCB1 (human); compound 0.2 µM): 22% and 17.2%
inhibition (RPS6KA5 KD1 KD2 (human); compound 0.02 µM): -2.5%
inhibition (RPS6KA5 KD1 KD2 (human); compound 0.2 µM): 0.1%
inhibition (FER (human); compound 0.02 µM): -1.8%
inhibition (FER (human); compound 0.2 µM): 13.2%
inhibition (SRPK2 (human); compound 0.02 µM): -5.7%
inhibition (SRPK2 (human); compound 0.2 µM): -6.5%
inhibition (PTK6 (human); compound 0.02 µM): -0.9%
inhibition (PTK6 (human); compound 0.2 µM): -0.8%
inhibition (PASK (human); compound 0.02 µM): -1%
inhibition (PASK (human); compound 0.2 µM): 1.7%
inhibition (ROS1 (human); compound 0.2 µM): 1.3%
inhibition (PRKD3 (human); compound 0.02 µM): -0.7%
inhibition (PRKD3 (human); compound 0.2 µM): -5.1%
inhibition (EPHA8 (human); compound 0.02 µM): 2.5%
inhibition (EPHA8 (human); compound 0.2 µM): 37.2%
inhibition (PTK2B (human); compound 0.02 µM): -2.8%
inhibition (PTK2B (human); compound 0.2 µM): -2.7%
inhibition (CHEK2 (human); compound 0.02 µM): -0.8%
inhibition (CHEK2 (human); compound 0.2 µM): 2.2%
inhibition (SPHK2 (human); compound 0.02 µM): -6%
inhibition (SPHK2 (human); compound 0.2 µM): 7.1%
inhibition (CLK2 (human); compound 0.02 µM): -0.7%
inhibition (CLK2 (human); compound 0.2 µM): -2.1%
inhibition (INSR (human); compound 0.02 µM): -8.9%
inhibition (INSR (human); compound 0.2 µM): 2.1%
inhibition (EPHA2 (human); compound 0.02 µM): -2.7%
inhibition (EPHA2 (human); compound 0.2 µM): 9.8%
inhibition (PDK2 (human); compound 0.02 µM): -0.1%
inhibition (PDK2 (human); compound 0.2 µM): 1.3%
inhibition (ERBB2 (human); compound 0.02 µM): 0.5%
inhibition (ERBB2 (human); compound 0.2 µM): -1.7%
inhibition (CSNK1D (human); compound 0.02 µM): -2.4% and -2.9%
inhibition (CSNK1D (human); compound 0.2 µM): -3.6%
inhibition (EPHA3 (human); compound 0.02 µM): -2.6%
inhibition (EPHA3 (human); compound 0.2 µM): 17%
inhibition (CDK1 (human); compound 0.02 µM): -2%
inhibition (CDK1 (human); compound 0.2 µM): -2%
inhibition (MKNK1 (human); compound 0.02 µM): -1.3%
inhibition (MKNK1 (human); compound 0.2 µM): 6.4%
inhibition (ROCK1 (human); compound 0.02 µM): -1.1%
inhibition (ROCK1 (human); compound 0.2 µM): 6.8%
inhibition (MARK4 (human); compound 0.02 µM): 1.4%
inhibition (MARK4 (human); compound 0.2 µM): 1.6%
inhibition (PHKG1 (human); compound 0.02 µM): -3.6%
inhibition (PHKG1 (human); compound 0.2 µM): -2%
inhibition (TNK2 (human); compound 0.02 µM): -5%
inhibition (TNK2 (human); compound 0.2 µM): -3.2%
inhibition (SYK (human); compound 0.02 µM): -7.3%
inhibition (SYK (human); compound 0.2 µM): -11.1%
inhibition (PRKG2 (human); compound 0.02 µM): -4.4%
inhibition (PRKG2 (human); compound 0.2 µM): -0.6%
inhibition (RPS6KA2 KD1 KD2 (human); compound 0.02 µM): -4.3%
inhibition (RPS6KA2 KD1 KD2 (human); compound 0.2 µM): -0.2%
Compound: CNC(=O)c1cc(Oc2ccc(NC(=O)Nc3ccc(Cl)c(C(F)(F)F)c3)cc2)ccn1

inhibition (MST1R (human); compound 0.02 µM): 2.1%
inhibition (MST1R (human); compound 0.2 µM): 4.9%
inhibition (NEK4 (human); compound 0.02 µM): -3.5%
inhibition (NEK4 (human); compound 0.2 µM): -0.8%
inhibition (PRKD2 (human); compound 0.02 µM): -2.2%
inhibition (PRKD2 (human); compound 0.2 µM): -1.5%
inhibition (PRKCB1 (human); compound 0.02 µM): 3% and 5.4%
inhibition (PRKCB1 (human); compound 0.2 µM): 0.8% and 5.1%
inhibition (RPS6KA5 KD1 KD2 (human); compound 0.02 µM): -4.7%
inhibition (FER (human); compound 0.02 µM): 15.1%
inhibition (FER (human); compound 0.2 µM): 40.1%
inhibition (SRPK2 (human); compound 0.02 µM): -4.8%
inhibition (SRPK2 (human); compound 0.2 µM): -3.2%
inhibition (PTK6 (human); compound 0.02 µM): 2.5%
inhibition (PTK6 (human); compound 0.2 µM): 26.2%
inhibition (PASK (human); compound 0.02 µM): -0.6%
inhibition (PASK (human); compound 0.2 µM): 3.1%
inhibition (ROS1 (human); compound 0.02 µM): 17.8%
inhibition (ROS1 (human); compound 0.2 µM): 69.7%
inhibition (PRKD3 (human); compound 0.02 µM): -1.6%
inhibition (PRKD3 (human); compound 0.2 µM): 1.3%
inhibition (EPHA8 (human); compound 0.02 µM): -1.1%
inhibition (EPHA8 (human); compound 0.2 µM): 10.8%
inhibition (PTK2B (human); compound 0.02 µM): -0.4%
inhibition (PTK2B (human); compound 0.2 µM): 9.7%
inhibition (CHEK2 (human); compound 0.02 µM): 4.1%
inhibition (CHEK2 (human); compound 0.2 µM): 4.1%
inhibition (SPHK2 (human); compound 0.02 µM): 4.3%
inhibition (SPHK2 (human); compound 0.2 µM): -6.2%
inhibition (CLK2 (human); compound 0.02 µM): 6.2%
inhibition (CLK2 (human); compound 0.2 µM): 7.2%
inhibition (INSR (human); compound 0.02 µM): 0.3%
inhibition (INSR (human); compound 0.2 µM): 4.5%
inhibition (EPHA2 (human); compound 0.02 µM): -5%
inhibition (EPHA2 (human); compound 0.2 µM): -2.8%
inhibition (PDK2 (human); compound 0.02 µM): -2.3%
inhibition (PDK2 (human); compound 0.2 µM): -4.2%
inhibition (ERBB2 (human); compound 0.02 µM): 0%
inhibition (ERBB2 (human); compound 0.2 µM): -1.5%
inhibition (CSNK1D (human); compound 0.02 µM): -1.8% and -2.9%
inhibition (CSNK1D (human); compound 0.2 µM): -2.9% and -3.3%
inhibition (EPHA3 (human); compound 0.02 µM): -4.8%
inhibition (EPHA3 (human); compound 0.2 µM): -4.4%
inhibition (CDK1 (human); compound 0.02 µM): -2.9%
inhibition (CDK1 (human); compound 0.2 µM): -1.5%
inhibition (NTRK3 (human); compound 0.02 µM): 5.4%
inhibition (NTRK3 (human); compound 0.2 µM): 9.1%
inhibition (MKNK1 (human); compound 0.02 µM): 6.1%
inhibition (MKNK1 (human); compound 0.2 µM): 3.1%
inhibition (HIPK2 (human); compound 0.02 µM): 1.4%
inhibition (HIPK2 (human); compound 0.2 µM): 3.3%
inhibition (ROCK1 (human); compound 0.02 µM): 1.7%
inhibition (ROCK1 (human); compound 0.2 µM): 4.4%
inhibition (MARK4 (human); compound 0.02 µM): -4.1%
inhibition (MARK4 (human); compound 0.2 µM): -6.3%
inhibition (PHKG1 (human); compound 0.02 µM): -1.4%
inhibition (PHKG1 (human); compound 0.2 µM): -1.9%
inhibition (TNK2 (human); compound 0.02 µM): -5.7%
inhibition (TNK2 (human); compound 0.2 µM): -3.6%
inhibition (SYK (human); compound 0.02 µM): 4.4%
inhibition (SYK (human); compound 0.2 µM): -4.7%
inhibition (PRKG2 (human); compound 0.02 µM): -2.3%
inhibition (PRKG2 (human); compound 0.2 µM): -2.6%
inhibition (RPS6KA2 KD1 KD2 (human); compound 0.02 µM): 6.3%
inhibition (RPS6KA2 KD1 KD2 (human); compound 0.2 µM): 8.4%
Compound: Cc1ccc(Nc2nccc(N(C)c3ccc4c(C)n(C)nc4c3)n2)cc1S(N)(=O)=O
